Where “and” joins values, the source holds several entries; their conditions need not be identical. Equal entries are not always repeated.
Tests used:
Type in all cases: in vitro ADME
[1] = Stability in human plasma at 37°C; conditions: for %stability in human plasma, mean / stability in human plasma, [QST], % of control: 37 C; for %stability in human plasma, mean: mean of 3; for stability in human plasma, [QST], % of control: single data points
Description: (§1) Hydroxamic acid–based compounds have been reported to display poor stability and high plasma clearance due to the presence of arylesterases and carboxylesterases in rodent blood ([34]). Therefore, we measured the stability of QST in mouse plasma and brain to determine whether drug degradation occurred during our sample preparations and equilibrium dialyses for the determination of unbound drug level (performed at 37°C). […] QST degradation was also observed in mouse brain homogenate (Figure 6B). However, perfusion of mice before brain collection prevented rapid drug degradation in the brain matrix. […] Degradation of QST can also be constrained if plasma and brain samples are processed at 4°C (Supplemental Figure 4A). All subsequent sample preparations were therefore performed on ice-cold baths to avoid degradation of QST in our PK analyses. […] The observed stability is probably due to the absence of esterases in human matrices, which are responsible for degradation of QST ([34]). Because we employed QST in several in vitro studies (Figures 1–4), the stability of the molecule was also tested in the cell media used to culture GSCs (neurobasal medium; see Methods).
(§2) Stability Study in Mouse Plasma, Mouse Brain, Human Plasma, Human Brain, and Neural […]
(§3) The stability of QST was determined in BALB/c mouse plasma, male nude athymic perfused and nonperfused mouse brain homogenate (1:9 w/v of PBS; pH 7.4), human brain (obtained from VRL Eurofins) homogenate (1:4 w/v of PBS; pH 7.4), pooled human plasma (Innovative Research), and neurobasal media. QST stock solutions (1 mM) were prepared in acetonitrile, subsequently diluted in a 40% methanol mixture, and added t o the matrices to make final concentrations of 100 nM or 10 nM. Then 50 or 30 µL of either plasma or brain homogenate containing QST were aliquoted into 1.5-mL microcentrifuge tubes (Eppendorf) and were incubated at either 4 °C or 37 °C for 0, 2, 4, 6, 12, or 24 hours (n = 3 at each time point). […]
(§4) Plasma and brain […]
(§5) homogenate samples were stored at −80 °C until LC-MS/MS analysis. […]

[2] = Stability in mouse plasma with esterase inhibitors (BNPP, PMSF, DTNB); conditions: 37 C, QST conc 500nM
Description: as §1, §2
The stability of QST was determined in BALB/c mouse plasma, male nude athymic perfused and nonperfused mouse brain homogenate (1:9 w/v of PBS; pH 7.4), human brain (obtained from VRL Eurofins) homogenate (1:4 w/v of PBS; pH 7.4), pooled human plasma (Innovative Research), and neurobasal media. QST stock solutions (1 mM) were prepared in acetonitrile, subsequently diluted in a 40% methanol mixture, and added t o the matrices to make final concentrations of 100 nM or 10 nM. Then 50 or 30 µL of either plasma or brain homogenate containing QST were aliquoted into 1.5-mL microcentrifuge tubes (Eppendorf) and were incubated at either 4 °C or 37 °C for 0, 2, 4, 6, 12, or 24 hours (n = 3 at each time point).
The stability of QST in mouse plasma was also tested at 0, 2, 8, 16, or 24 hours (n = 3 at each time point) in the presence of esterase inhibitors: 0.25 mM BNPP, 1mM dithiobis(2-nitrobenzoic acid) (DTNB), or 1.25 mM phenylmethylsulfonyl fluoride (PMSF). Plasma and brain homogenate samples were stored at −80 °C until LC-MS/MS analysis. […]
Supplemental Figure 4. Stability of QST in mouse plasma is improved upon addition of esterase inhibitors. (A) Stability of QST (100 nM) in mouse plasma and mouse brain homogenate when sample preparation is performed at 4 °C. (B) Stability of QST (500 nM) in mouse plasma spiked with 3 different esterase inhibitors: 0.25 mM bis(p-nitrophenyl) phosphate (BNPP), 1.25 mM phenylmethylsulfonyl fluoride (PMSF), and 1 mM dithiobis(2-nitrobenzoic acid) (DTNB) over the course of 24 hours at 37 °C. (C) Stability of QST (10 nM and 100 nM) in neurobasal cell culture medium over the course of 24 hours at 37 °C.

[3] = Stability in mouse brain homogenate (perfused, non-perfused) at 37°C; conditions: 100 nM; for [QST], % of control: mouse brain homogenate, 37 C; for [QST], % of control / raw response (Data Point): replicates; for %stability ([QST], % of control, Mean) / raw response, Mean / raw response (Data Point): mouse brain, 37C
Description: as §1, §2, §3, §4, §5

SMILES: Cn1cc(CNCC2CCN(c3ncc(C(=O)NO)cn3)CC2)c2ccccc21 [QST, quisinostat]
- %stability in human plasma, mean ([1]; 10 nM, 0 hrs): 100.0 % of control
- stability in human plasma, [QST], % of control ([1]; 10 nM, 0 hrs): 96.2 % of control and 101.9 % of control
- stability in human plasma, [QST], % of control ([1]; 10 nM, 2 hrs): 98.7 % of control and 101.4 % of control and 99.6 % of control
- %stability in human plasma, mean ([1]; 10 nM, 6 hrs): 99.5 % of control
- stability in human plasma, [QST], % of control ([1]; 10 nM, 6 hrs): 100.4 % of control and 102 % of control and 96.1 % of control
- %stability in human plasma, mean ([1]; 10 nM, 24 hrs): 97.7 % of control
- stability in human plasma, [QST], % of control ([1]; 10 nM, 24 hrs): 93.7 % of control and 94.6 % of control and 104.9 % of control
- %stability in human plasma, mean ([1]; 100 nM, 0 hrs): 100.0 % of control
- stability in human plasma, [QST], % of control ([1]; 100 nM, 0 hrs): 96.3 % of control and 100 % of control and 103.7 % of control
- %stability in human plasma, mean ([1]; 100 nM, 2 hrs): 102.1 % of control
- stability in human plasma, [QST], % of control ([1]; 100 nM, 2 hrs): 105.4 % of control and 102.2 % of control and 98.8 % of control
- %stability in human plasma, mean ([1]; 100 nM, 6 hrs): 103.6 % of control
- stability in human plasma, [QST], % of control ([1]; 100 nM, 6 hrs): 105.9 % of control and 102.8 % of control and 102 % of control
- %stability in human plasma, mean ([1]; 100 nM, 24 hrs): 99.0 % of control
- stability in human plasma, [QST], % of control ([1]; 100 nM, 24 hrs): 101.6 % of control and 97 % of control and 98.2 % of control
- stability in human plasma ([1]; 37°C): completely stable
- %stability ([2]; mouse plasma with 0.25mM BNPP, time 0): 107.9% and 91.2% and 100.9%
- %stability ([2]; mouse plasma with 0.25mM BNPP, time 0, mean): 100.0%
- %stability ([2]; mouse plasma with 0.25mM BNPP, time 2): 64.6% and 83.0% and 82.7%
- %stability ([2]; mouse plasma with 0.25mM BNPP, time 2, mean): 76.8%
- %stability ([2]; mouse plasma with 0.25mM BNPP, time 8): 61.2% and 65.8% and 67.9%
- %stability ([2]; mouse plasma with 0.25mM BNPP, time 8, mean): 65.0%
- %stability ([2]; mouse plasma with 0.25mM BNPP, time 16): 53.0% and 52.9% and 53.7%
- %stability ([2]; mouse plasma with 0.25mM BNPP, time 16, mean): 53.2%
- %stability ([2]; mouse plasma with 0.25mM BNPP, time 24): 47.9% and 55.7% and 51.9%
- %stability ([2]; mouse plasma with 0.25mM BNPP, time 24, mean): 51.8%
- %stability ([2]; mouse plasma with 1mM DTNB, time 0): 107.9% and 91.2% and 100.9%
- %stability ([2]; mouse plasma with 1mM DTNB, time 0, mean): 100.0%
- %stability ([2]; mouse plasma with 1mM DTNB, time 2): 20.7% and 19.1% and 20.9%
- %stability ([2]; mouse plasma with 1mM DTNB, time 2, mean): 20.2%
- %stability ([2]; mouse plasma with 1mM DTNB, time 8): 0.277% and 0.7%
- %stability ([2]; mouse plasma with 1mM DTNB, time 8, mean): 0.5%
- %stability ([2]; mouse plasma with 1mM DTNB, time 16): 0.6% and 0.5%
- %stability ([2]; mouse plasma with 1mM DTNB, time 16, mean): 0.545%
- %stability ([2]; mouse plasma with 1mM DTNB, time 24): 0.7% and 0.6% and 0.25%
- %stability ([2]; mouse plasma with 1mM DTNB, time 24, mean): 0.5%
- %stability ([2]; mouse plasma with 1.25mM PMFS, time 0): 107.9% and 91.2% and 100.9%
- %stability ([2]; mouse plasma with 1.25mM PMFS, time 0, mean): 100.0%
- %stability ([2]; mouse plasma with 1.25mM PMFS, time 2): 61.9% and 64.2% and 59.2%
- %stability ([2]; mouse plasma with 1.25mM PMFS, time 2, mean): 61.8%
- %stability ([2]; mouse plasma with 1.25mM PMFS, time 8): 26.3% and 24.6% and 23.5%
- %stability ([2]; mouse plasma with 1.25mM PMFS, time 8, mean): 24.8%
- %stability ([2]; mouse plasma with 1.25mM PMFS, time 16): 6.1% and 5.9% and 7.1%
- %stability ([2]; mouse plasma with 1.25mM PMFS, time 16, mean): 6.4%
- %stability ([2]; mouse plasma with 1.25mM PMFS, time 24): 4.3% and 3.8%
- %stability ([2]; mouse plasma with 1.25mM PMFS, time 24, mean): 4.0%
- [QST], % of control ([3]; Non-Perfused, 0 hours): 99.9% and 101.4% and 98.8%
- [QST], % of control ([3]; Non-Perfused, 2 hours): 90.9% and 101.4% and 87.2%
- [QST], % of control ([3]; Non-Perfused, 6 hours): 71.4% and 72.9% and 80.4%
- [QST], % of control ([3]; Non-Perfused, 24 hours): 46.8% and 49% and 47.5%
- [QST], % of control ([3]; Perfused, 0 hours): 103.7% and 102.4% and 93.9%
- [QST], % of control ([3]; Perfused, 2 hours): 98.2% and 99.9%
- [QST], % of control ([3]; Perfused, 6 hours): 98.2% and 97.3%
- [QST], % of control ([3]; Perfused, 24 hours): 85.9% (2×) and 82.9%
- %stability ([QST], % of control, Mean) ([3]; Non-perfused, 0 hrs): 100.0%
- raw response, Mean ([3]; Non-perfused, 0 hrs): 267333
- raw response (Data Point) ([3]; Non-perfused, 0 hrs): 267000 and 271000 and 264000
- %stability ([QST], % of control, Mean) ([3]; Non-perfused, 2 hrs): 93.1%
- raw response, Mean ([3]; Non-perfused, 2 hrs): 249000
- raw response (Data Point) ([3]; Non-perfused, 2 hrs): 243000 and 271000 and 233000
- %stability ([QST], % of control, Mean) ([3]; Non-perfused, 6 hrs): 74.9%
- raw response, Mean ([3]; Non-perfused, 6 hrs): 200333
- raw response (Data Point) ([3]; Non-perfused, 6 hrs): 191000 and 195000 and 215000
- %stability ([QST], % of control, Mean) ([3]; Non-perfused, 24 hrs): 47.8%
- raw response, Mean ([3]; Non-perfused, 24 hrs): 127667
- raw response (Data Point) ([3]; Non-perfused, 24 hrs): 125000 and 131000 and 127000
- %stability ([QST], % of control, Mean) ([3]; Perfused, 0 hrs): 100.0%
- raw response, Mean ([3]; Perfused, 0 hrs): 236333
- raw response (Data Point) ([3]; Perfused, 0 hrs): 245000 and 242000 and 222000
- %stability ([QST], % of control, Mean) ([3]; Perfused, 2 hrs): 98.7%
- raw response, Mean ([3]; Perfused, 2 hrs): 233333
- raw response (Data Point) ([3]; Perfused, 2 hrs): 232000 and 236000
- %stability ([QST], % of control, Mean) ([3]; Perfused, 6 hrs): 97.6%
- raw response, Mean ([3]; Perfused, 6 hrs): 230667
- raw response (Data Point) ([3]; Perfused, 6 hrs): 232000 and 230000
- %stability ([QST], % of control, Mean) ([3]; Perfused, 24 hrs): 84.9%
- raw response, Mean ([3]; Perfused, 24 hrs): 200667
- raw response (Data Point) ([3]; Perfused, 24 hrs): 203000 and 196000
